# Experimental data from patent US12527788B2, “Defining RNA-small molecule affinity landscapes enables design of a small molecule inhibitor of an oncogenic non-coding RNA” (University of Florida Research Foundation, Incorporated, priority 2017, dated 2026).
# How the values were obtained:
# 4IL8 RNA = test: Competitive binding assay with 4-FL; settings: RNA 4IL8, competitive binding with 4-FL; read-out: Binding affinity
# Protocol: (§1) Competitive binding assays were completed by incubating the RNA of interest with 100 nM 4-FL and increasing concentrations of 4. The resulting curves were fit to equation 4:
# (§2) [formula] where θ is the percentage of 4-FL bound, [4-FL] is the concentration of 4-FL, Kt is the dissociation constant of RNA and 4-FL, [RNA] is the concentration of RNA, Ct is the concentration of 4, Kd is the dissociation constant for 4, and A is a constant.
# 4IL1 RNA = test: Competitive binding assay with 4-FL; settings: RNA 4IL1, competitive binding with 4-FL; read-out: Binding affinity
# Protocol: as §1, §2
# pre-miR-18a = test: Chem-CLIP in DU145 cell lysates; assay type: binding, human; settings: 10 μM, DU145 cell lysate
# Protocol: (§3) Chem-CLIP in Cell Lysates: DU145 cells were cultured as described above in 100 mm dishes and lysed with 500 μL of Cell Lysis Buffer (10 mM Tris pH 7.4, 0.25% Igepal CA-630 and 150 mM NaCl) for 5 min at room temperature. The cell lysate was then centrifuged and the supernatant collected. Next, 10 μM of 4 was added to the lysate in 1×PBS and the sample was incubated for 2 h at room temperature. The reaction was then directly used for pull-down by incubating with 50 μL of streptavidin resin in 1×PBS for 30 min at room temperature. […] RNA was eluted from the streptavidin beads by incubation with 100 μL of 1× Elution Buffer (10 mM EDTA and 95% formamide) at 65° C. for 20 min. The eluted RNA was cleaned up using a Quick-RNA Miniprep Kit (Zymo) per the manufacturer's protocol. RT-qPCR was completed as described above using 50 ng of total RNA in the RT reaction. Expression levels were normalized to 18S rRNA.
# pre-miR-17 = test: Chem-CLIP in DU145 cell lysates; assay type: binding, human; settings: 10 μM, DU145 cell lysate
# Protocol: as §3
# pre-miR-20a = test: Chem-CLIP in DU145 cell lysates; assay type: binding, human; settings: 10 μM, DU145 cell lysate
# Protocol: as §3
# [1] = system: other miRNAs studied (of the 33 with potential binding sites); test: Chem-CLIP in DU145 cell lysates; set-up: species or system human; settings: 10 μM, DU145 cell lysate
# Protocol: as §3
# AT-rich DNA hairpin = test: In solution fluorescence-based binding affinity measurement
# Description: It has been difficult to identify compounds that are heterocyclic in nature that selectively recognize RNA over DNA.^5 Thus, to further gain insight into the selectivity of our RNA motif-small molecule interactions, we compared the measured affinities for selected RNA motifs to the affinities of the ligands for an AT-rich DNA hairpin, a common target of small molecules similar to those shown in FIG. 1. […] This alteration reduces DNA affinity because key stacking and hydrogen bonding interactions are not possible. […] Thus, the interactions selected via 2DCS are RNA-selective.
# (§4) Binding Affinity Measurements: An in solution, fluorescence-based assay was used to determine binding affinities by monitoring the change in fluorescence intensity of 1-FL (or 2-FL/3-FL/4-FL) as a function of RNA concentration as described previously.^18 Briefly, the RNA of interest was folded in 1× Folding Buffer (8 mM Na2HPO4, pH 7.0, 185 mM NaCl and 1 mM EDTA) by heating at 60° C. for 5 min followed by slowly cooling to room temperature on the bench top. Then, the FL-conjugated compound was added into the RNA solution to a final concentration of 100 nM. Serial dilutions were then completed using 1× Folding Buffer supplemented with 100 nM FL-conjugated compound. The solutions were incubated at room temperature for 30 min and then transferred to a well of a black 384-well plate. Fluorescence intensity was measured using a Bio-Tek FL×800 plate reader with an excitation wavelength of 485/20 nm and an emission wavelength of 528/20 nm. The change in fluorescence intensity as a function of the concentration of RNA was fit to equation 3:^9 I=I0+0.5 Δε{([FL]0+[RNA]0 +Kd)−(([FL]0+[RNA]0+Kd)^2−4[FL]0[RNA]0)^1/2} (3) where I is the observed fluorescence intensity; I0 is the fluorescence intensity in the absence of RNA; Δε is the difference between the fluorescence intensity in the absence of RNA and in the presence of infinite RNA concentration; [FL]0 is the concentration of compound; [RNA]0 is the concentration of the selected RNA; and Kd is the dissociation constant.
# selected RNA motifs = test: as above; settings: read-out: Average Kd of Selected RNA Binders
# Protocol: Bound RNA motifs for each compound were harvested from the array surface, amplified, and identified by using high throughput sequencing (RNA-seq). Highly abundant RNAs in the sequencing data were then subjected to binding measurements. Typically, those RNAs that were highly enriched bound to the small molecules with affinities (Kds) that ranged from 1 to 10 μM (FIG. 2 and Table 1) while binding to the starting libraries was not saturable. These affinities are promising for binding RNA, as it has been difficult to acquire low micromolar affinity with compounds of this low molecular weight. In fact, RNAs that have undergone Darwinian evolution to bind small molecules, namely riboswitches, often bind their cognate ligand at […] concentrations;^30-33 bioactive compounds that mimic riboswitch ligands bind with similar affinities.^30,34
# as §4
structure (smiles),measurement,setting,value
CN1CCN(c2ccc(-c3ccc4nc(-c5cc(C(C)(C)C)c(OCCCC(=O)NCCCN=[N+]=[N-])c(C(C)(C)C)c5)[nH]c4c3)cc2)CC1 [Compound 4],Kd,4IL8 RNA,7.5 ± 0.6 µM
same,Kd,4IL1 RNA,5.5 ± 1.3 µM
same,Enrichment in pulled-down fraction,pre-miR-18a,~4 fold
same,Enrichment in pulled-down fraction,pre-miR-17,~2 fold
same,Enrichment in pulled-down fraction,pre-miR-20a,~2 fold
same,Enrichment in pulled-down fraction,[1],no enrichment
same,Kd,AT-rich DNA hairpin,> 100 µM
same,Kd,selected RNA motifs,11 ± 2 µM
